Measurements reported in US10908153B2, “Pseudomonas aeruginosa inhibitor compounds” (priority 2015, dated 2021).

Target: T1, PscE-PscG interaction (Pseudomonas aeruginosa, UniProt P95435+Q9I317)
T1 construct: made in house; host or cells: E. coli
Experiment: ELISA test of inhibition of the PscE-PscG interaction
Assay type: binding
Conditions: for inhibition at 50 µM: 4 h, read-out: PscE-PscG at 50 μM; for inhibitory effect compared with clioquinol: ELISA test, 50 μM, Table 2; for PscE-PscG at 50 μM: inhibition by new synthetic analogues at 50 μM, PscG 2.2 μM, PscE solution 3 μM
Experimental: 50 μL of PscG protein at 1 μM (for screening libraries) or 2.2 μM (for screening newly synthesized molecules) is incubated in a NUNC 96-well plate for 8 h at 4° C. The wells are washed three times with 200 μL of 1× PBS/0.1% Tween20®. The wells are treated overnight at 4° C. with 200 μL of a 5% milk solution in 1× PBS/0.1% Tween20®. The solution is then discarded, and the plate is drained dry.
The test is carried out as follows:
Negative control (lowest signal level): 100 μL of buffer ([…] Tris-HCl, 250 mM NaCl, pH 8.0);
Positive control (highest signal level): 50 μL of buffer and 50 μL of a test solution at 25 (library screening) or 3 μM (screening of analogue molecules) of the PscE protein;
Test of the inhibitors: 40 μL buffer, 50 μL of a solution at 25 μM (library screening) or 3 μM (screening of analogue molecules) of PscE protein and 10 μL of the solution containing the inhibitor to be tested.
The solutions are left for 4 h at room temperature.
The wells are washed three times with 200 μL of 1× PBS/0.1% Tween20®. The anti-PscE antibody diluted to 1:2,000 in 1× PBS/0.1% Tween20®, 50 μL, is added and the whole is left 2 h at room temperature. The wells are washed three times with 200 μL of 1× PBS/0.1% Tween20®. The HRP-conjugated anti-mouse antibody is diluted to 1:5,000 in 1× PBS/0.1% Tween20® and 50 μL is added and left for 2 h at room temperature. The wells are washed three times with 200 μL of 1× PBS/0.1% Tween20®.
The ELISA test is developed by adding 50 μL of TMB reagent followed by incubation for 15 minutes at room temperature in the dark. The reaction is stopped by adding 50 μL of 2N HCl. The plate is read at 450 nm.

T1 sequence (Q9I317 whole entry): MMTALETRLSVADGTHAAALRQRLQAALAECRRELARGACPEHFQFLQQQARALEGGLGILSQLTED
T1 sequence (P95435 whole entry): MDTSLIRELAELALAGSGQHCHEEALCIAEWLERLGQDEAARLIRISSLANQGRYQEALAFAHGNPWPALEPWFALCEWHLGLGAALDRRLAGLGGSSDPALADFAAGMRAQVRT

SMILES	inhibition at 50 µM [%]	inhibitory effect compared with clioquinol	PscE-PscG at 50 μM
CC(=O)Oc1c(-c2cn(CCCCCCCCOCCCc3ccc[n+](CCCCCCCCOCCCc4cccnc4)c3)nn2)cc(Cl)c2cccnc12 [molecule 43, 3-(3-(8-(4-(8-acetoxy-5-chloroquinolin-7-yl)-1H-1,2,3-triazol-1-yl)octyloxy)propyl)-1-(8-(3-(pyridin-3-yl)propoxy)octyl)pyridinium chloride]	29.5		
CC(=O)Oc1c(-c2cn(CCCCCCCCCCCCOCCCc3ccc[n+](CCCCOCCCc4cccnc4)c3)nn2)cc(Cl)c2cccnc12 [molecule 44, 3-(3-(12-(4-(8-acetoxy-5-chloroquinolin-7-yl)-1H-1,2,3-triazol-1-yl)dodecyloxy)propyl)-1-(4-(3-(pyridin-3-yl)propoxy)butyl)pyridinium chloride]	33.4		
CC(=O)Oc1c(-c2cn(CCCCCCOCCCc3ccc[n+](CCCCCCCCCCOCCCc4cccnc4)c3)nn2)cc(Cl)c2cccnc12 [molecule 45, 3-(3-(6-(4-(8-acetoxy-5-chloroquinolin-7-yl)-1H-1,2,3-triazol-1-yl)hexyloxy)propyl)-1-(10-(3-(pyridin-3-yl)propoxy)decyl)pyridinium chloride]	71.6	superior to clioquinol	
CC(=O)Oc1c(-c2cn(CCCCCCOCCCc3ccc[n+](CCCCCCCCCCCCOCCCc4cccnc4)c3)nn2)cc(Cl)c2cccnc12 [molecule 46, 3-(3-(6-(4-(8-acetoxy-5-chloroquinolin-7-yl)-1H-1,2,3-triazol-1-yl)hexyloxy)propyl)-1-(12-(3-(pyridin-3-yl)propoxy)dodecyl)pyridinium chloride]			no inhibition
CC(=O)Oc1c(-c2cn(CCCCCCCCOCCCc3ccc[n+](CCCCCCCCCCOCCCc4cccnc4)c3)nn2)cc(Cl)c2cccnc12 [molecule 47, 3-(3-(8-(4-(8-acetoxy-5-chloroquinolin-7-yl)-1H-1,2,3-triazol-1-yl)octyloxy)propyl)-1-(10-(3-(pyridin-3-yl)propoxy)decyl)pyridinium chloride]			no inhibition
CC(=O)Oc1c(-c2cn(CCCCCCCCCCOCCCc3ccc[n+](CCCCCCCCCCOCCCc4cccnc4)c3)nn2)cc(Cl)c2cccnc12 [molecule 48, 3-(3-(10-(4-(8-acetoxy-5-chloroquinolin-7-yl)-1H-1,2,3-triazol-1-yl)decyloxy)propyl)-1-(10-(3-(pyridin-3-yl)propoxy)decyl)pyridinium chloride]	72.3	superior to clioquinol	
CC(=O)Oc1c(-c2cn(CCCCCCCCCCCCOCCCc3ccc[n+](CCCCCCCCOCCCc4cccnc4)c3)nn2)cc(Cl)c2cccnc12 [molecule 49, 3-(3-(12-(4-(8-acetoxy-5-chloroquinolin-7-yl)-1H-1,2,3-triazol-1-yl)dodecyloxy)propyl)-1-(8-(3-(pyridin-3-yl)propoxy)octyl)pyridinium chloride]	69.8	superior to clioquinol	
CC(=O)Oc1c(-c2cn(CCCCCCCCCCOCCCc3ccc[n+](CCCCCCCCCCCCOCCCc4cccnc4)c3)nn2)cc(Cl)c2cccnc12 [molecule 50, 3-(3-(10-(4-(8-acetoxy-5-chloroquinolin-7-yl)-1H-1,2,3-triazol-1-yl)decyloxy)propyl)-1-(12-(3-(pyridin-3-yl)propoxy)dodecyl)pyridinium chloride]	18.9		
CC(=O)Oc1c(-c2cn(CCCCCCCCCCCCOCCCc3ccc[n+](CCCCCCCCCCOCCCc4cccnc4)c3)nn2)cc(Cl)c2cccnc12 [molecule 51, 3-(3-(12-(4-(8-acetoxy-5-chloroquinolin-7-yl)-1H-1,2,3-triazol-1-yl)dodecyloxy)propyl)-1-(10-(3-(pyridin-3-yl)propoxy)decyl)pyridinium chloride]	28.9		
CC(=O)Oc1c(-c2cn(CCCCCCCCCCCCOCCCc3ccc[n+](CCCCCCCCCCCCOCCCc4cccnc4)c3)nn2)cc(Cl)c2cccnc12 [molecule 52, 3-(3-(12-(4-(8-acetoxy-5-chloroquinolin-7-yl)-1H-1,2,3-triazol-1-yl)dodecyloxy)propyl)-1-(12-(3-(pyridin-3-yl)propoxy)dodecyl)pyridinium chloride]	3.4		
